As usually defined, the viability is the share of living cells, or the viability signal relative to a control.

Results on three compounds are retold here after article PMC7179685, “Iminosugars With Endoplasmic Reticulum α-Glucosidase Inhibitor Activity Inhibit ZIKV Replication and Reverse Cytopathogenicity in vitro” (Frontiers in Microbiology, 2020).

The test system of one data set is ZIKV. Further details: method as in Ma et al., 2018. The conditions noted are these: ref Ma et al., 2018, cited from earlier work.
Data set [1] deals with ZIKV strain PRVABC59. Briefly: Antiviral screening assay (MTS cell viability after infection) in CHME3 cells. The data set is classed as cell-based, Zika virus. The conditions noted are these: for ZIKV-induced cell death (MTS): PRVABC59, MOI 1, 72 hpi. The procedure: (§1) A cell viability assay was used to evaluate both the cytotoxicity and antiviral abilities of the iminosugars with appropriate controls as previously described ([Fletcher et al., 2000]) using the CellTiter 96® AQueous One Solution Cell Proliferation Assay (MTS, Promega, Madison, WI, United States) following the manufacturer’s instructions. At 60–70% confluence, Vero cells and CHME3 cells were pretreated with iminosugars for 2 h and then infected with ZIKV according to the plate layout shown in Supplementary Figure S1. Four biological replicates were used to assess cytotoxicity, and six replicates were used to assess the antiviral ability of each iminosugar with concentrations ranging from 0.01 to 1000 μM or vehicle (sterile nuclease-free water). Cells treated with iminosugars or vehicle control were infected with ZIKV strain PRVABC59, IBH30656 or MEX 2-81 at a multiplicity of infection (MOI) of 1 in infection medium consisting of DMEM supplemented with 5% FBS and 1% antibiotic/antimycotic solution. The CHME3 infection medium was additionally supplemented with 0.1% non-essential amino acids (NEAA). At 72 h post-infection (hpi), MTS solution was added to the wells, and after 2 h, the optical density was measured at 490 nm using a microplate reader (ELx800; BioTek, Winooski, VT, United States). Previous studies have shown that ER α-glucosidase inhibitor, Celgosivir prevents DENV secretion in primary human macrophages with an EC50 of 5 μM and has CC50 greater than 1000 μM in MBDK cells ([Whitby et al., 2004]; [Sung et al., 2016]).

The subject of data set [2] is ZIKV strain PRVABC59. Nature of the data set: Antiviral screening assay (MTS cell viability after infection) in Vero cells. The data set is classed as cell-based, Zika virus. As to conditions: for ZIKV-induced cell death (MTS): Vero cells, PRVABC59, MOI 1, 72 hpi. The procedure: as §1
The test system of a further data set is Vero cells. Briefly: Cytotoxicity, MTS cell viability assay in Vero cells. The data set is classed as cell-based, African green monkey. As to conditions: 72 h post treatment; for metabolic activity (cytotoxicity, MTS): 1000 μM; for metabolic activity compared to vehicle control (cytotoxicity, MTS): 0.01 to 100 μM. As for the experimental part:
as §1
For orientation: Formazan colour is commonly taken as a measure of viable cells.

The next data set concerns CHME3 cells. Briefly: Cytotoxicity, MTS cell viability assay in CHME3 cells. It counts as cell-based, Human. The conditions noted are these: 72 h post treatment; for metabolic activity (cytotoxicity, MTS): 1000 μM; for metabolic activity compared to vehicle control (cytotoxicity, MTS): 0.01 to 100 μM. The procedure: as §1
The subject of data set [3] is ZIKV PRVABC59. Nature of the data set: Virus yield reduction assay (qRT-PCR and TCID50) in Vero cells. As to conditions: 1 μM, 48 hpi; for PRVABC59 ZIKV RNA in supernatant compared with vehicle control (qRT-PCR): MOI 0.5 and MOI 5, p ≤ 0.0318; for infectious PRVABC59 ZIKV titers (TCID50): MOI 0.5 and MOI 5, p ≤ 0.0433. The data set is classed as cell-based, Zika virus. The procedure: (§2) Zika virus yield reduction following treatment with iminosugars was assessed by measuring the NS1 gene by a previously described quantitative reverse transcription-polymerase chain reaction (qRT-PCR) and infectious virus titration in Vero cells ([Reed and Muench, 1938]; [Goebel et al., 2016]). Vero and CHME3 cells pre-treated 1 μM of castanospermine, celgosivir or DNJ for 2 h and then were infected with PRVABC59 either at MOI 0.5 or 5 in infection medium. After 2 h of incubation with the virus, medium from cells was removed, cells were washed with phosphate buffered saline, and fresh infection medium containing 1 μM of castanospermine, celgosivir or DNJ was added to the wells. At 48 and 72 hpi, culture supernatants were harvested and stored at −80°C until use for viral RNA extraction. Viral RNA was extracted from 50 μl of sample using the MagMAX-96 Viral RNA Isolation Kit (Applied Biosystems, Foster City, CA, United States) on a MagMAX Express-96 Deep Well Magnetic Particle Processor (Applied Biosystems). The amount of ZIKV genomic RNA was measured by qRT-PCR using SuperScript® III Platinum One-Step qRT-PCR Kit on a 7500 Fast Real-Time PCR System (Applied Biosystems). The primers (F: 5′-[…]-3′, R: 5′-[…]-3′) and probe sequence (5′- FAM-TGCCCAACA/ZEN/CAAGGTGAAGCC TACCT-BHQ) were purchased from Integrated DNA Technologies (IDT; Coralville, IA, United States), and the qRT-PCR cycling conditions included an initial cDNA synthesis for 30 min at 50°C, followed by 2 min at 95°C and 45 cycles of 2-step cycling at 95°C for 15 s, then 55°C for 30 s ([Goebel et al., 2016]). The ZIKV copy numbers were quantified using a standard curve generated with serial dilutions of positive control ZIKV RNA standards derived from ZIKV with known TCID50 value. Cell culture supernatants were titrated for the infectious virus in Vero cells, and titer was expressed as TCID50 calculated using the Reed-Muench method ([Reed and Muench, 1938]).
On the technique in general: Quantitative PCR measures a nucleic acid by following its amplification.

For data set [4], the system named is ZIKV PRVABC59. Briefly: Virus yield reduction assay (qRT-PCR and TCID50) in CHME3 cells. It counts as cell-based, Zika virus. The conditions noted are these: 1 μM, 48 hpi. As for the experimental part:
as §2

Structures are written as SMILES. Structures can show the parent of a compound that is named as a salt.

Regarding `CC(C)(C)NC(=O)N(CCCCCCN1C[C@H](O)[C@@H](O)[C@H](O)[C@H]1CO)C1CCCCC1` [IHVR-19029], the “ZIKV RNA production” value in the data set with ZIKV (HEK293 embryonic kidney cells, MOI 0.1, 0.1 μM, the lowest concentration tested) is “decreased ZIKV RNA production”. In the data set with ZIKV (embryonic kidney cells), the ZIKV viral replication entry is given as “reduced”.

On to `O[C@H]1[C@H](O)[C@@H](O)CN2CC[C@H](O)[C@H]12` [castanospermine], for which, in the data set with ZIKV strain PRVABC59 [1] (CHME3 cells, MOI 1, 10 μM required), the “cell viability following ZIKV infection” value is on record as 90%. The “ZIKV-induced cell death (MTS)” value in the data set with ZIKV strain PRVABC59 [1] (CHME3 cells) and in the data set with ZIKV strain PRVABC59 [2] was “reduce ZIKV-induced cell death” each time. In addition, the “metabolic activity (cytotoxicity, MTS)” value in the data set with Vero cells and in the data set with CHME3 cells was “decrease in metabolic activity” each time. Further, the “metabolic activity compared to vehicle control (cytotoxicity, MTS)” value in the data set with Vero cells and with CHME3 cells was “No reduction in metabolic activity” in each case. In the data set with ZIKV PRVABC59 [3], the “PRVABC59 ZIKV RNA in supernatant compared with vehicle control (qRT-PCR)” value is recorded as “Significant reductions”. In addition, the “infectious PRVABC59 ZIKV titers (TCID50)” value in the data set with ZIKV PRVABC59 [3] is reported as “statistically significant reduction”; in the data set on ZIKV PRVABC59 [4] (MOI 0.5) it was “not statistically significant”; in the data set on ZIKV PRVABC59 [4] (MOI 5, p ≤ 0.0433), “statistically significant reduction”. For the same compound, the “PRVABC59 ZIKV RNA in supernatant, reduction vs control cells (qRT-PCR)” value in the data set with ZIKV PRVABC59 [4] (MOI 5) was “not significant”.

In the case of `OC[C@H]1NC[C@H](O)[C@@H](O)[C@@H]1O` [DNJ, 1-deoxynojirimycin hydrochloride], the “ZIKV-induced cell death (MTS)” value in the data set on ZIKV strain PRVABC59 [1] (CHME3 cells) and in the data set on ZIKV strain PRVABC59 [2] was “reduce ZIKV-induced cell death” each time. Besides, the viability at 0.01 µM with ZIKV strain PRVABC59 [1] (Zika virus, read-out: cell viability following ZIKV infection) is > 90%; in the data set with ZIKV strain PRVABC59 [2] (Zika virus, Vero, read-out: cell viability following ZIKV infection), > 90%. The “metabolic activity (cytotoxicity, MTS)” value in the data set on Vero cells and in the data set with CHME3 cells was “decrease in metabolic activity” in each case. Also, the “metabolic activity compared to vehicle control (cytotoxicity, MTS)” value in the data set with Vero cells and in the data set with CHME3 cells was “No reduction in metabolic activity” each time. Besides, the “PRVABC59 ZIKV RNA in supernatant compared with vehicle control (qRT-PCR)” value in the data set with ZIKV PRVABC59 [3] is “Significant reductions”. For the same compound, the “infectious PRVABC59 ZIKV titers (TCID50)” value is given as “statistically significant reduction” in the data set with ZIKV PRVABC59 [3]; “statistically significant reduction” in the data set on ZIKV PRVABC59 [4] (MOI 0.5); “statistically significant reduction” in the data set on ZIKV PRVABC59 [4] (MOI 5, p ≤ 0.0433).
